Measurements published in paper PMC9516332 (Frontiers in Oncology, 2022).
Like-named read-outs stand apart in the source and are kept apart here.

Key:
Assay in all cases: Kinase panel profiling at 1 µmol/L (MSA or IMAP), percentage inhibition
Type in all cases: biochemical
[1] = target: T1, panel of 255 wild-type kinases (Homo sapiens, UniProt O15111); details: read-out: %-inhibition at 1 µmol/L, IKKα
T1 sequence (O15111 1-745): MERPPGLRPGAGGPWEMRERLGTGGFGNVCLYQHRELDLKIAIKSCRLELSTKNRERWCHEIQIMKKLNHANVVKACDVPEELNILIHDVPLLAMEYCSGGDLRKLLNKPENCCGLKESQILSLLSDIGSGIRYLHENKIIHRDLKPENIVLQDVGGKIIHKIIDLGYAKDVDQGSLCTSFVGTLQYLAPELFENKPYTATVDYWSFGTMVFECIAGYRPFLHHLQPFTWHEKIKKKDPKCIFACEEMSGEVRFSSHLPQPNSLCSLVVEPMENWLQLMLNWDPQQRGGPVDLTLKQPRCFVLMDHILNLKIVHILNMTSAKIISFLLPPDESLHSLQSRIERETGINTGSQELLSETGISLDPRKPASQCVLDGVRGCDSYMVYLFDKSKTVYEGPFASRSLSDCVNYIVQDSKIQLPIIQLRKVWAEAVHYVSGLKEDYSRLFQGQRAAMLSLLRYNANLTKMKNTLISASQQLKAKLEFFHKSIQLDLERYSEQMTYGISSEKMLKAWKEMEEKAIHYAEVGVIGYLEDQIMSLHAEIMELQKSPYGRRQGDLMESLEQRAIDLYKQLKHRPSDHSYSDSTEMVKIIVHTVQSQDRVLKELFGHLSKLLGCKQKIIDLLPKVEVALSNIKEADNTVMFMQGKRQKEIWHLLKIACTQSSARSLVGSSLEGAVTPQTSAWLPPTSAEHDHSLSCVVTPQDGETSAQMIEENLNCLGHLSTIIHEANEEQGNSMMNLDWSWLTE

[2] = target: panel of 255 wild-type kinases (Homo sapiens, UniProt P06213); details: read-out: %-inhibition at 1 µmol/L, INSR
[3] = target: panel of 255 wild-type kinases (Homo sapiens, UniProt P17252); details: read-out: %-inhibition at 1 µmol/L, PKCα
[4] = target: panel of 255 wild-type kinases (Homo sapiens, UniProt P23443); details: read-out: %-inhibition, p70S6K
[5] = target: panel of 255 wild-type kinases (Homo sapiens, UniProt P24941)
[6] = target: panel of 255 wild-type kinases (Homo sapiens, UniProt P27448); details: read-out: %-inhibition, MARK3
[7] = target: T2, panel of 255 wild-type kinases (Homo sapiens, UniProt P51817); details: read-out: %-inhibition at 1 µmol/L, PRKX
T2 sequence (P51817 1-358): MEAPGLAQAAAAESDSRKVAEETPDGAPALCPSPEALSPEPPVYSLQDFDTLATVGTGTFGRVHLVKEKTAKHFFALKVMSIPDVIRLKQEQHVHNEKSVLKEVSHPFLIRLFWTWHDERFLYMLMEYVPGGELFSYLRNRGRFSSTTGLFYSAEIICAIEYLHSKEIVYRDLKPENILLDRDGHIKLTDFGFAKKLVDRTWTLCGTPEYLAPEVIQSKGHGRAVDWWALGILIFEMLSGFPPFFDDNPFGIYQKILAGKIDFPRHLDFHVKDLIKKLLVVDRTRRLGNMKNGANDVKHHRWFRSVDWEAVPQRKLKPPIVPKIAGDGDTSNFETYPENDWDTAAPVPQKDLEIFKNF

[8] = target: panel of 255 wild-type kinases (Homo sapiens, UniProt P54756); details: read-out: %-inhibition at 1 µmol/L, EPHA5
[9] = target: panel of 255 wild-type kinases (Homo sapiens, UniProt Q04759); details: read-out: %-inhibition at 1 µmol/L, PKCθ
[10] = target: T3, panel of 255 wild-type kinases (Homo sapiens, UniProt Q06418); details: read-out: %-inhibition at 1 µmol/L, TYRO3
T3 sequence (Q06418 41-890): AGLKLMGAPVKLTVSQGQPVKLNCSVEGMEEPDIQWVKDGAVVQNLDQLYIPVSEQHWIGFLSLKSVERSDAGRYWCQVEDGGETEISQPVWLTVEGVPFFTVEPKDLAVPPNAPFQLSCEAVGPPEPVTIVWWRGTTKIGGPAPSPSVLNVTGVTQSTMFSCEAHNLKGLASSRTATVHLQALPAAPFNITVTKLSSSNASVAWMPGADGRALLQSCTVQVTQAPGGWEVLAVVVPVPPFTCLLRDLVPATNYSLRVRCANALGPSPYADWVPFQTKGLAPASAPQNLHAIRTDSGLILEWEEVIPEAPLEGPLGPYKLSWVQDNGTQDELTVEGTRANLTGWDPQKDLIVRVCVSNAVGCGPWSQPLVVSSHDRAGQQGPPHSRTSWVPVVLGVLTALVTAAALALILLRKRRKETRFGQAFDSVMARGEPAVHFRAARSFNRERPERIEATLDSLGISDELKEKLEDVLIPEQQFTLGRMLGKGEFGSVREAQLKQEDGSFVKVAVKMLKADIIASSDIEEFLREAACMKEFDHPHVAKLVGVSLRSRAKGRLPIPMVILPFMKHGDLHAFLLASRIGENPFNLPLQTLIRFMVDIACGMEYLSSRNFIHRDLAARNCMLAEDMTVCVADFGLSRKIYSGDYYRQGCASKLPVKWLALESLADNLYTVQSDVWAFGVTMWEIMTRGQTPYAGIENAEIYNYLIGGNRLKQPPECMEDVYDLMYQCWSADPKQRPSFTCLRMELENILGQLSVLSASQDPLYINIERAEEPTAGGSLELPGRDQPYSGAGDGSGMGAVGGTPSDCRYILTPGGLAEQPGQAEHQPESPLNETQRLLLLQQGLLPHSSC

[11] = kinase IKKα, 1 µmol/L single concentration
[12] = kinase INSR, 1 µmol/L single concentration
[13] = kinase PKCα, 1 µmol/L single concentration
[14] = p70S6K, 1 µmol/L single concentration
[15] = CDK2/CycA2 kinase assay, 1 µmol/L single concentration, read-out: %-inhibition CDK2/CycA2
[16] = CDK2/CycE1 kinase assay, 1 µmol/L single concentration, read-out: %-inhibition CDK2/CycE1
[17] = MARK3, 1 µmol/L single concentration
[18] = kinase PRKX, 1 µmol/L single concentration
[19] = kinase EPHA5, 1 µmol/L single concentration
[20] = kinase PKCθ, 1 µmol/L single concentration
[21] = kinase TYRO3, 1 µmol/L single concentration

| Structure (SMILES) | inhibition at 1 µM [1, 11] | inhibition at 1 µM [2, 12] | inhibition at 1 µM [3, 13] | inhibition at 1 µM [4, 14] | inhibition at 1 µM [5, 15] | inhibition at 1 µM [5, 16] | inhibition at 1 µM [6, 17] | inhibition at 1 µM [7, 18] | inhibition at 1 µM [8, 19] | inhibition at 1 µM [9, 20] | inhibition at 1 µM [10, 21] | further results |
| --- | --- | --- | --- | --- | --- | --- | --- | --- | --- | --- | --- | --- |
| COC(=O)N[C@@H](C)CNc1nccc(-c2cn(C(C)C)nc2-c2cc(Cl)cc(NS(C)(=O)=O)c2F)n1 [encorafenib] | 12% | 9% | 5% | 14% | 5.57% | -9% | 8% | 1.82% | -2.32% | 2% | 8% |  |
| C[C@H](Nc1ncnc2nc[nH]c12)c1cc2cccc(Cl)c2c(=O)n1-c1ccccc1 [duvelisib] | 8% | -0.398% | 0.321% | 6% | -0.854% | -11% | 12% | 0.385% | 0.787% | 1.09% | 6% |  |
| CCN1CCN(c2ccc(Nc3cc(N(C)C(=O)Nc4c(Cl)c(OC)cc(OC)c4Cl)ncn3)cc2)CC1 [infigratinib] | 2.62% | 17% | -4% | 5.33% | 11% | -33% | -7.59% | -3.53% | -8% | -3% | 10% |  |
| CNC(=O)c1ccc(-c2cnc3ncc(Cc4ccc5ncccc5c4)n3n2)cc1F [capmatinib] |  |  |  |  |  |  |  |  |  |  |  | inhibition at 1 µM [1]: 1.1%; inhibition at 1 µM [2]: 4.5%; inhibition at 1 µM [3]: -3.51%; inhibition at 1 µM [4]: 5.68%; inhibition at 1 µM ([5]; read-out: %-inhibition CDK2/CycA2): 1.63%; inhibition at 1 µM ([5]; read-out: %-inhibition CDK2/CycE1): -47%; inhibition at 1 µM [6]: -0.936%; inhibition at 1 µM [7]: -5.65%; inhibition at 1 µM [8]: -13%; inhibition at 1 µM [9]: -5.31%; inhibition at 1 µM [10]: 7% |
| FC(F)(F)c1ccc(CNc2ccc(Cc3c[nH]c4ncc(Cl)cc34)cn2)cn1 [pexidartinib] | -0.379% | 17% | -8% | 31% | 12% | -4% | 12% | 15% | 4% | 3.27% | 10% |  |
| O=C(Nc1cnn2ccc(N3CCC[C@@H]3c3cc(F)ccc3F)nc12)N1CC[C@H](O)C1 [larotrectinib] | 2.45% | 2% | -3% | -1.58% | -2.44% | -18% | 4% | 0.637% | -0.0881% | -2.77% | 5.58% |  |
| CCc1nc(C(N)=O)c(Nc2ccc(N3CCC(N4CCN(C)CC4)CC3)c(OC)c2)nc1NC1CCOCC1 [gilteritinib] | 2.16% | 100% |  | 79% | 27% | 17% | 52% | 4% | 52% | 12% | 93% |  |
| CCn1c(=O)c(-c2cc(NC(=O)Nc3ccccc3)c(F)cc2Br)cc2cnc(NC)cc21 [ripretinib] | 1.08% | 1.55% | -1.85% | 64% | -11% | -12% | 1.78% | 0.705% | 100% | -3% | 9.48% |  |
| CN1CCN(c2ccc(C(=O)Nc3n[nH]c4ccc(Cc5cc(F)cc(F)c5)cc34)c(NC3CCOCC3)c2)CC1 [entrectinib] | 8% | 94% | 20% | 25% | 20% | 11% | 15% | 2.19% | 53% | 10% | 20% |  |
| Cn1cnc2c(F)c(Nc3ccc(Br)cc3F)c(C(=O)NOCCO)cc21 [binimetinib] | 9% | 6% | -0.116% | 4.72% | 2.3% | -14% | 7% | 2.57% | -2.36% | -2.27% | 5.28% |  |
| COc1ccc(CN2C3CC2CN(c2ccc(-c4cc(OCC(C)(C)O)cn5ncc(C#N)c45)cn2)C3)cn1 [selpercatinib] | -1.36% | 1.51% | 3.23% | 42% | 0.89% | -15% | 45% | 55% | 69% | -2.29% | 99% |  |
| Cc1nc(NC(=O)N2CCC[C@H]2C(N)=O)sc1-c1ccnc(C(C)(C)C(F)(F)F)c1 [alpelisib] | 6% | -2.57% | 1.21% | 9% | -2.39% | -10% | 11% | -4.49% | 0.272% | -0.212% | 1.52% |  |
